Earlier results in patent publication US20020035131A1, “Regimen and kit for amelioration of premature ejaculation” (Pentech Pharmaceuticals, Inc., priority 1999, published 2002).

Tested on: patients treated for premature ejaculation
Conditions: cited from earlier work

CN[C@H]1CC[C@@H](c2ccc(Cl)c(Cl)c2)c2ccccc21 [sertraline]
patients who managed to ejaculate during sexual intercourse (25 mg sertraline/day, study group of 46): all patients
men unable to ejaculate after prolonged sexual intercourse (50 mg sertraline/day, 4/46): 9%
patients unable to ejaculate after prolonged sexual intercourse (100 mg sertraline/day, 10/46): 22%
